{"source": "patent US9574176B2", "about": "(priority 2012, dated 2017)", "key": {"[1]": {"tested_on": "nerve cells differentiated from NVDCC-deficient mouse hippocampus-derived neural stem cells", "assay_type": "cell-based"}, "[2]": {"tested_on": "NVDCC-deficient mouse-derived neural stem cells", "assay_type": "cell-based"}, "[3]": {"tested_on": "muscarinic receptor", "assay_type": "cell-based, mouse"}, "[4]": {"tested_on": "nicotinic receptor"}}, "data": [{"compound": "Nc1ccncc1", "note": "[4-AP, 4-aminopyridine]", "values": [{"measurement": "activity potential of the differentiated neurons (spike frequency)", "setting": "[1]", "value": "significantly increased"}]}, {"compound": "CC1=C(/C=C/C(C)=C/C=C/C(C)=C/C(=O)O)C(C)(C)CCC1", "note": "[ATRA, all-trans retinoic acid]", "values": [{"measurement": "differentiation on induction", "setting": "[2]", "value": "most cells differentiated into MAP2 (microtubule-associated protein 2)-positive nerve cells"}]}, {"compound": "C[C@@H]1O[C@H](C[N+](C)(C)C)C[C@H]1O", "note": "[muscarine]", "values": [{"measurement": "reaction of differentiated neurons (calcium fluorescence)", "setting": "[3]", "value": "reacted"}]}, {"compound": "CN1CCCC1c1cccnc1", "note": "(centres unmarked) [nicotine]", "values": [{"measurement": "reaction of differentiated neurons (calcium fluorescence)", "setting": "[4]", "value": "reacted"}]}, {"compound": "tetradotoxin [TTX]", "values": [{"measurement": "activity potential of the differentiated neurons (spike frequency)", "setting": "[1]", "value": "suppressed"}]}]}
